The values that follow come from ChEMBL document CHEMBL5523741, “Development of an Orally Bioavailable LCK PROTAC Degrader as a Potential Therapeutic Approach to T-Cell Acute Lymphoblastic Leukemia” (J Med Chem, 2024).

The nature of series [1]: Metabolic stability in mouse liver microsomes assessed as half life in presence of NADPH by UPLC-MS/MS analysis. It is filed as ADME, Microsome. For orientation: Microsomes from liver hold many membrane-bound enzymes, among them those of drug oxidation.
Series [2] is described as follows: Aqueous solubility of the compound incubated for 18 hrs by UPLC-SQDMS. Type of series: physicochemical. As to conditions: buffer.
In series [3] the target is T1, Protein cereblon/Tyrosine-protein kinase Lck (Homo sapiens, UniProt P06239+Q96SW2). Description: PROTAC activity at HiBit-tagged LCK/CRBN in human KOPT-K1 cells assessed as induction of LCK degradation incubated for 6 hrs by Nano-Glo HiBiT assay relative to control. Type of series: cell-based. (In general: HiBiT is a short tag that completes a luciferase, so light tracks the accessible tagged protein.)
Target sequence in this assay (P06239 2-509 limits assumed): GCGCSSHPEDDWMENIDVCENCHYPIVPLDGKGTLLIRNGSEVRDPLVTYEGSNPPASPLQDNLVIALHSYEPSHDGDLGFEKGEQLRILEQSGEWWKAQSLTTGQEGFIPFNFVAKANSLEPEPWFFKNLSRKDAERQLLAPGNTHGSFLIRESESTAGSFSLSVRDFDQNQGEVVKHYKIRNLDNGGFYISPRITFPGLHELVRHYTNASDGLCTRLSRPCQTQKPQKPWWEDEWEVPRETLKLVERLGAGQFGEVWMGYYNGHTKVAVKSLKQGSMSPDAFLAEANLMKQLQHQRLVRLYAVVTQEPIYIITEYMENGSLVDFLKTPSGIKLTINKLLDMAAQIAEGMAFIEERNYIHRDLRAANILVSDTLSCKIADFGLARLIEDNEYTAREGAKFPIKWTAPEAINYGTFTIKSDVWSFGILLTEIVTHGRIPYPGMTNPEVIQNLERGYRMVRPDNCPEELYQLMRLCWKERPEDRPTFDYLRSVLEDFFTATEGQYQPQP
Target sequence in this assay (Q96SW2 whole entry partner): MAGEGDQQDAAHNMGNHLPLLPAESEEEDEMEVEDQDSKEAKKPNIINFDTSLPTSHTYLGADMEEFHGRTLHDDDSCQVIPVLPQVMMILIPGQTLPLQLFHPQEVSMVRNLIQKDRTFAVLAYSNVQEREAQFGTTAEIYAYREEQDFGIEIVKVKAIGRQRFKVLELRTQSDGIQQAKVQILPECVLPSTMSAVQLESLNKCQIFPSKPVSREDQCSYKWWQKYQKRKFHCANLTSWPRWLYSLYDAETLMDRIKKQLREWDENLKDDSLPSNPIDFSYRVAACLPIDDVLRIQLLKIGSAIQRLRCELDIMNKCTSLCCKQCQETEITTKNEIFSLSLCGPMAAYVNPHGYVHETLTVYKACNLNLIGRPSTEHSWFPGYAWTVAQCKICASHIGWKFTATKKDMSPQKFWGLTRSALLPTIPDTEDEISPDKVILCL

The target in series [4] is T1, Protein cereblon/Tyrosine-protein kinase Lck. In words: PROTAC activity at HiBit-tagged LCK/CRBN in human KOPT-K1 cells assessed as induction of LCK degradation incubated for 6 hrs by Nano-Glo HiBiT assay. Type of series: cell-based.
Series [5] can be described thus: Stability in CD-1 mouse plasma assessed as half life. It is filed as ADME, cell-free.
A short description of series [6]: Apparent permeability of compound across basolateral to apical side in human Caco-2 cells. Type of series: ADME, cell-based. A general note: Caco-2 monolayers are a common model of the intestinal barrier.
A short description of series [7]: Apparent permeability of compound across apical to basolateral side in human Caco-2 cells. Type of series: ADME, cell-based.
A short description of series [8]: Drug concentration in CD-1 mouse plasma at 30 mg/kg, po measured after 4 hrs by UPLC-MS/MS analysis. Type of series: ADME, organism-based.
Series [9] deals with KOPTK1. Description: Downregulation of CSK in human KOPT-K1 cells measured for 6 hrs by tandem mass tag proteomic assay. It is filed as functional, cell-based.
Series [10] concerns KOPTK1. In words: Downregulation of CISH in human KOPT-K1 cells measured for 6 hrs by tandem mass tag proteomic assay. Type of series: functional, cell-based.
For series [11], the system named is KOPTK1. Description: Antiproliferative activity against human KOPT-K1 cells assessed as inhibition of cell growth at 100 nM measured for 160 hrs by celltiter glo assay. It is filed as functional, cell-based.
In series [12] the test system is KOPTK1. In words: Downregulation of EPHB1 in human KOPT-K1 cells measured for 6 hrs by tandem mass tag proteomic assay. Type of series: functional, cell-based.
In series [13] the test system is KOPTK1. In words: Antiproliferative activity against human KOPT-K1 cells assessed as inhibition of cell growth at 100 nM measured for 18 hrs by celltiter glo assay. Type of series: functional, cell-based.
The nature of series [14]: Clearance in CD-1 mouse at 3 mg/kg, iv measured up to 24 hrs by LC-MS/MS analysis. Type of series: ADME, organism-based. As to conditions: in vivo.
A short description of series [15]: Efflux ratio of apparent permeability across basolateral to apical over apical to basolateral in human Caco-2 cells. Type of series: ADME, cell-based.
Series [16] is described as follows: Oral bioavailability in CD-1 mouse at 10 mg/kg measured up to 24 hrs by LC-MS/MS analysis. It is filed as ADME, organism-based. As to conditions: in vivo.
Series [17] has as its system KOPTK1. In words: Antiproliferative activity against human KOPT-K1 cells assessed as effect on cell viability measured for 72 hrs by celltiter glo assay. It is filed as functional. The settings on record: read-out: LC50 (the source's name).

Structures are written as SMILES. Values after ≈ are worked out from the molar mass of the structure shown. Active and inactive are the calls of the source. The rule behind the calls is not given here. Where only a bound is given, the exact number is not on record here.

For `Cc1nc(Nc2ncc(C(=O)Nc3c(C)cccc3Cl)s2)cc(N2CCN(CCCC(=O)N3CCN(c4ccc(C5CCC(=O)NC5=O)cc4)CC3)CC2)n1` (centres undefined), the half-life in [1] was 1.06 h. The solubility at 18 h in series [2] stood at 0.15 µM (≈ 0.118 µg/mL). The Emax in [3] worked out at 93%.
Consider `Cc1nc(Nc2ncc(C(=O)Nc3c(C)cccc3Cl)s2)cc(N2CCN(CCN3CCN(c4ccc(C5CCC(=O)NC5=O)cc4)CC3)CC2)n1` (centres undefined), for which the DC50 in series [4] was found to be 53 nM. Also, in series [1], the half-life was 4 h. Moreover, in series [2], the solubility at 18 h came to 1.87 µM (≈ 1.39 µg/mL). Besides, the maximal effect (Emax) in [3] amounted to 62%.
Turning to `Cc1nc(Nc2ncc(C(=O)Nc3c(C)cccc3Cl)s2)cc(N2CCN(C(=O)CCCN3CC4CC3CN4c3ccc(C4CCC(=O)NC4=O)cc3)CC2)n1` (centres undefined), the half-life in series [5] was 4.25 h; in series [1] it was 0.54 h. For the same compound, the Papp B→A in [6] is 1.55 ×10⁻⁶ cm/s. In addition, in series [7], the apparent permeability from apical to basolateral (Papp A→B) was found to be 1.32 ×10⁻⁶ cm/s. The solubility at 18 h in series [2] came out at 15.2 µM (≈ 12.1 µg/mL). In addition, the Emax in [3] was found to be 88%. In [8], this compound returned a concentration at 4 h of 1.19 ng/mL.
Take `Cc1nc(Nc2ncc(C(=O)Nc3c(C)cccc3Cl)s2)cc(N2CCN(CCO)CC2)n1`: the outcome in the series on KOPTK1 [9], with KOPTK1 [10], in the series with KOPTK1 [12] and in the series with KOPTK1 [13] was Active. Moreover, the result with KOPTK1 [11] was inactive.
With `Cc1nc(Nc2ncc(C(=O)Nc3c(C)cccc3Cl)s2)cc(N2CCN(CCCC(=O)N3CCC4(CC3)CCN(c3ccc(C5CCC(=O)NC5=O)cc3)CC4)CC2)n1` (centres undefined), in series [1], the half-life is 1.2 h. This compound also yielded a solubility at 18 h in series [2] of 1.5 µM (≈ 1.28 µg/mL). In addition, the Emax in series [3] stood at 86%.
On to `Cc1nc(Nc2ncc(C(=O)Nc3c(C)cccc3Cl)s2)cc(N2CCN(Cc3ccc(C4CCC(=O)NC4=O)cc3)CC2)n1` (centres undefined), for which the half-life in [1] was 1.23 h. Further, the solubility at 18 h in [2] is 1.99 µM (≈ 1.28 µg/mL). Besides, the Emax in [3] is below 60%.
Take `Cc1nc(Nc2ncc(C(=O)Nc3c(C)cccc3Cl)s2)cc(N2CCN(CCCN3CCN(Cc4ccc(C5CCC(=O)NC5=O)cc4)CC3)CC2)n1` (centres undefined): the half-life is 30.1 h in [5] and 10 h in [1]. In addition, the DC50 in series [4] worked out at 4.48 nM. In addition, in series [6], the Papp B→A is 13.3 ×10⁻⁶ cm/s. In addition, the clearance in series [14] was found to be 169 mL/min/kg. For the same compound, the Papp A→B in series [7] was determined as 1.15 ×10⁻⁶ cm/s. In addition, in [2], the solubility at 18 h amounted to 7.54 µM (≈ 5.82 µg/mL). In addition, the Emax in series [3] was 84%. In series [15], the efflux ratio came out at 11.6. The compound also registered a bioavailability in series [16] of 3.1%.
As for `Cc1nc(Nc2ncc(C(=O)Nc3c(C)cccc3Cl)s2)cc(N2CCC(CN3CCN(c4ccc(C5CCC(=O)N(C)C5=O)cc4)CC3)CC2)n1` (centres undefined), the outcome in series [4] was inactive. In addition, the CC50 in the series on KOPTK1 [17] stood at 1.98 nM.
In the case of `Cc1nc(Nc2ncc(C(=O)Nc3c(C)cccc3Cl)s2)cc(N2CCN(CCCN3CCC(c4ccc(C5CCC(=O)NC5=O)cc4)CC3)CC2)n1` (centres undefined), the half-life in [5] was 4.98 h; in series [1], 10 h. Besides, the Papp B→A in [6] was determined as 9.82 ×10⁻⁶ cm/s. Moreover, the Papp A→B in series [7] was found to be 1.04 ×10⁻⁶ cm/s. This compound also had a solubility at 18 h in [2] of 2.57 µM (≈ 1.94 µg/mL). For the same compound, in [3], the Emax was 87%. The compound further gave a concentration at 4 h in series [8] of 54 ng/mL.
As to `Cc1nc(Nc2ncc(C(=O)Nc3c(C)cccc3Cl)s2)cc(N2CCN(CCCC(=O)N3CCC(CN4CCN(c5ccc(C6CCC(=O)NC6=O)cc5)CC4)CC3)CC2)n1` (centres undefined), the half-life in [1] is 0.67 h. The compound further returned a solubility at 18 h in series [2] of 0.65 µM (≈ 0.574 µg/mL). The Emax in series [3] was found to be 84%.
Take `Cc1nc(Nc2ncc(C(=O)Nc3c(C)cccc3Cl)s2)cc(N2CCN(CCCN3CCN(c4ccc(C5CCC(=O)NC5=O)cc4)CC3)CC2)n1` (centres undefined): the half-life in series [1] is 6.9 h. In series [2], this compound registered a solubility at 18 h of 2.08 µM (≈ 1.58 µg/mL). The Emax in series [3] amounted to 90%.
`Cc1nc(Nc2ncc(C(=O)Nc3c(C)cccc3Cl)s2)cc(N2CCN(CC3CCN(c4ccc(C5CCC(=O)NC5=O)cc4)CC3)CC2)n1` (centres undefined): the half-life in series [1] is 3.5 h. In addition, in series [3], the Emax was below 60%.
Regarding `Cc1nc(Nc2ncc(C(=O)Nc3c(C)cccc3Cl)s2)cc(N2CCN(CCCN3CC4CC3CN4c3ccc(C4CCC(=O)NC4=O)cc3)CC2)n1` (centres undefined), the half-life in [1] is 2.6 h. The concentration in solution in series [2] (solubility at 18 h) was 14.5 µM (≈ 11.2 µg/mL). Further, in series [3], the Emax is 83%.
In the case of `Cc1nc(Nc2ncc(C(=O)Nc3c(C)cccc3Cl)s2)cc(N2CCC3(CCN(c4ccc(C5CCC(=O)NC5=O)cc4)CC3)CC2)n1` (centres undefined), the half-life in series [1] was 2.2 h. Also, in series [3], the Emax is below 60%.
With `Cc1nc(Nc2ncc(C(=O)Nc3c(C)cccc3Cl)s2)cc(N2CCN(CCCC(=O)N3CC4CC3CN4c3ccc(C4CCC(=O)NC4=O)cc3)CC2)n1` (centres undefined), the half-life in [1] was 0.32 h. Also, in series [2], the concentration in solution (solubility at 18 h) was 0.19 µM (≈ 0.152 µg/mL). For the same compound, the maximal effect (Emax) in [3] turned out to be 90%.
As for `Cc1nc(Nc2ncc(C(=O)Nc3c(C)cccc3Cl)s2)cc(N2CCN(CCCN3CCC4(CC3)CCN(c3ccc(C5CCC(=O)NC5=O)cc3)CC4)CC2)n1` (centres undefined), the half-life was 47.4 h in series [5] and 10 h in series [1]. In addition, the Papp B→A in [6] came to 5.3 ×10⁻⁶ cm/s. In [7], the Papp A→B was found to be 0.231 ×10⁻⁶ cm/s. The solubility at 18 h in series [2] amounted to 1.4 µM (≈ 1.16 µg/mL). In series [3], the Emax is 93%. This compound had a concentration at 4 h in series [8] of 18 ng/mL.
As to `Cc1nc(Nc2ncc(C(=O)Nc3c(C)cccc3Cl)s2)cc(N2CCC(N(C)C3CCN(c4ccc(C5CCC(=O)NC5=O)cc4)CC3)CC2)n1` (centres undefined), the figures for the half-life in series [5] and in [1] were 3.84 h and 2.1 h, respectively. For the same compound, the Papp B→A in series [6] is 12.7 ×10⁻⁶ cm/s. In addition, the Papp A→B in series [7] stood at 1.93 ×10⁻⁶ cm/s. Besides, the Emax in series [3] was below 60%. This compound also registered a concentration at 4 h in series [8] of 207 ng/mL. The efflux ratio in series [15] was found to be 6.56.

For orientation: half-life means how long it takes for the measured level to halve. For orientation: solubility means the concentration that dissolves in the medium under given conditions. Read a high solubility as a readily soluble substance. For orientation: Emax means the maximal effect, on the per cent scale that the assay sets. Broadly, the DC50 is the concentration at which degradation of the target reaches its halfway point. In general, Papp B→A refers to the apparent permeability from the basolateral to the apical side of a cell layer. One may read the Papp A→B as the apparent permeability from the apical to the basolateral side of a cell layer. As usually defined, the clearance is the volume of plasma or blood freed of the substance per unit of time. Low values mean inefficient removal, high ones efficient removal. The efflux ratio is the permeability from basolateral to apical divided by that in the opposite direction, in the common usage. In general, bioavailability refers to the share of a dose that reaches the circulation, judged against a reference dose that is usually intravenous. A lower bioavailability goes with poor availability.
